# Patent US7723070B2, “Overexpression of aminoacyl-tRNA synthetases for efficient production of engineered proteins containing amino acid analogues” (California Institute of Technology, priority 2000, dated 2010)
# System: B834(DE3) or CAG18491 hosts with pQE15/pREP4 or pQE15-MRS/pREP4
# Experiment: Translational activity: mDHFR synthesis, statements covering several bacterial hosts (with pQE15 or pQE15-MRS)
# Format: cell-based, E. coli
# Settings: amino acids at 60 mg/liter, both bacterial hosts
# Protocol: Methionine analogues were synthesized via alkylation of diethylacetamidomalonate, as previously described (As described in Example I, infra; J. C. M. van Hest, D. A. Tirrell, FEBS Lett. 1998, 428, 68-70). Cultures of B834(DE3)/pQE15-MRS/pREP4 or B834(DE3)/pQE15/pREP4 or CAG18491/pQE15-MRS/pREP4 or CAG18491/pQE15/pREP4 in M9AA media were grown to an optical density of 0.90, and the cells were sedimented by centrifugation. The M9AA medium was prepared by supplementing sterile M9 medium with […] of each of the amino acids, 1 mM MgSO4, 0.2 wt % glucose, 1 mg/ml thiamine chloride, and […] calcium chloride. The antibiotics ampicillin and kanamycin were added at concentrations of 200 mg/l and 35 mg/l, respectively.
# Cells were washed three times with M9 salts and resuspended to an optical density of 0.90 in M9 test media containing 19 amino acids plus 1) neither methionine nor analogue (negative control); 2) methionine (60 mg/liter, positive control); or 3) an analogue of interest (60 mg/liter). To test the effect of increasing the level of supplementation of the analogues, a set of experiments was also conducted in which the medium was supplemented with 500 mg/liter of methionine or the amino acid analogue. Expression of mDHFR was induced by addition of 0.4 mM isopropyl β-D-thiogalactopyranoside (IPTG), and protein synthesis was monitored after 4.5 hours.
row,SMILES,target protein mDHFR in SDS-PAGE
1,"C=CCOC[C@H](N)C(=O)O (racemic) [Analogue 10, o-allylserine]",not observed
2,"NC(CCCC(F)(F)F)C(=O)O (racemic) [Analogue 6, DL-6,6,6-trifluoro-2-amino hexanoic acid]",not observed
3,"C#CCC(N)C(=O)O (stereo not drawn) [Analogue 13, propargylglycine]",not observed
